# Results taken from PubChem BioAssay AID463229 (Broad Institute, 2010).
# Calls of active or inactive are those of the source.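 Rule for the calls: active = compounds raising the signal whose fitted half-maximal concentration is at or below their top tested dose (cut at about 25 µM in these data); inconclusive = flat fit at 30 to 70% activity, or a poor fit; inactive = the rest.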
# Test system: INS-1E rat beta cells, no cytokines, CellTiter-Glo ATP, 48 h
# Assay: ATP level change in INS-1E without cytokines, dose response, counter-screen for beta-cell apoptosis protection project, INS-1E rat cells, ATP luminescence, cherry pick (AID 463229)
row,Structure (SMILES),AC50
1,NC1=NC[C@@H](CC2CCCCC2)N1CCc1cc(C(F)(F)F)cc(C(F)(F)F)c1,9.46 µM
2,O=C1C(=O)c2ccc(-c3ccccc3)cc2-c2ccccc21,1.1 µM
3,Cc1cc(C)c2c(N)c3cccc(C)c3nc2n1,7.91 µM
4,COc1cc(/C=C2\CC(C(C)(C)C)C/C(=C\c3cc(OC)c(OC)c(OC)c3)C2=O)cc(OC)c1OC (centres undefined),6.04 µM
5,Cc1cccc(CNc2ncnc3ccc(-c4ccc5c(c4)OCCO5)cc23)c1,7.27 µM
6,CCCCCn1c(=O)c(C(=O)NCc2ccccc2Cl)c(O)c2ccccc21,6.84 µM
7,Cc1ccc2nc(-c3ccc(NC(=O)c4cccnc4)cc3)oc2c1,7.8 µM
8,COc1ccc(C(=O)N/N=C/c2ccccc2OC(=O)c2ccccc2)cc1,7.93 µM
9,CCc1ccc(-c2cc(C(F)(F)F)n3nc(C(=O)Nc4cnn(Cc5ccc(C)cc5)c4)cc3n2)s1,7.83 µM
10,Cc1cc(C)cc(OCC(O)CN2CCC(CN3C(=O)c4cccc5cccc(c45)C3=O)CC2)c1 (centres undefined),7.97 µM
11,CC(CC(=O)N1CCN(c2cccc(Cl)c2)CC1)S(=O)(=O)c1ccc2c(c1)NC(=O)CO2 (centres undefined),7.1 µM
12,CCCCCCc1cc2cc(-c3nnc(-c4ccccc4)o3)c(=O)oc2cc1O,7.25 µM
13,Oc1ccccc1/C=N/Nc1nccnc1Cl,3.97 µM
14,COc1cccc(C(NC(C)=O)c2ccc3cccnc3c2O)c1 (centres undefined),3.78 µM
15,CCN(CC)c1ccc(/C=N/NC(=O)c2ccoc2C)c(O)c1,2.04 µM
16,CCC(C)(C)c1ccc(OCCCC[n+]2cccc(C)c2C)c(C(C)(C)CC)c1,0.804 µM
17,COC(=O)[C@H](CC(C)C)N(Cc1ccccc1)S(=O)(=O)N(Cc1ccccc1)[C@@H](CC(C)C)C(=O)OC,15.5 µM
18,O=C(/C(=C/c1cccc(Cl)c1)c1nc2ccccc2[nH]1)c1ccccc1,4.36 µM
19,COc1ccc(-c2ccc([C@H]3[C@@H]4C=CCC[C@@]4(C)C(=O)N3Cc3ccccc3)c(F)c2)cc1,22.5 µM
20,CN(C)CCCn1cnc2c(c1=N)C(c1ccccc1)c1ccc3ccccc3c1O2 (centres undefined),7.08 µM
21,COc1ccc(C2c3ccc4ccccc4c3Oc3ncn(CCCN(C)C)c(=N)c32)cc1 (centres undefined),8.02 µM
22,COc1cnc(-c2ccccn2)nc1NC(C)C,17.2 µM
23,Oc1cccc(/C=N/NC(=S)Nc2cccnc2)c1O,8.6 µM
24,COC(=O)C[C@]1(C(=O)OC)CN(C#N)N(c2ccc(Cl)cc2)C12c1ccccc1-c1ccccc12,4.13 µM
25,CC(C)Cn1c(SCC(=O)N2CCc3ccccc3C2)nc2cc(Cl)ccc2c1=O,6.5 µM
26,O=C(NC(NC(=S)Nc1ccc(Cl)cc1Cl)C(Cl)(Cl)Cl)c1cccc([N+](=O)[O-])c1 (centres undefined),7.31 µM

row,Structure (SMILES),AC50
1,CN(C)S(=O)(=O)c1cccc(NC(=S)N/N=C/c2cc(Br)ccc2O)c1,2.72 µM
2,C#CCOCCOCCOCCNc1nc(N2CCN(C(=O)CCCCCCCCCCNC(=O)[C@H]([C@@H](C)CC)n3cc(CCCCCN)nn3)CC2)nc(N2CCN(C(=O)CCCCCCCCCCNC(=O)[C@@H]([C@H](C)O)n3cc(C)nn3)CC2)n1,6.55 µM
3,CCC(=NNC(=O)c1ccc2c(c1)nc(C)n2CC)c1cc(F)ccc1O,9.84 µM
4,CN1/C(=C\C(=O)CN2C(=O)NC3(CCCCCC3)C2=O)C(C)(C)c2ccccc21,7.99 µM
5,CCCCn1c(=N)n(CC(=O)c2ccc(Br)s2)c2ccccc21,13.1 µM
6,CCOC(=O)c1ccc(NC(=O)NCc2cccnc2)cc1,2.01 µM
7,C/C(=N/NC(=O)CN(c1ccccc1)S(=O)(=O)c1ccccc1)c1ccccc1O,10.2 µM
8,O=C(Nc1cccc(S(=O)(=O)Nc2ccc(Cl)cc2)c1)c1ccc(Cl)nc1,4.6 µM
9,CC(C)Oc1ccc(C(CCN)C2CCCCC2)cc1 (centres undefined),13.3 µM
10,O=C(NCCCn1ccnc1)c1ccc(N2CCCCCC2)c([N+](=O)[O-])c1,8.09 µM
11,CC(=O)/C=C/n1c(=S)oc2ccccc21,8.87 µM
12,O=C(N/N=C/c1ccc([N+](=O)[O-])s1)C(O)c1ccccc1 (centres undefined),6.99 µM
13,COc1ccc2[nH]c(C(=O)N/N=C/c3ccc(O)cc3O)cc2c1,2.08 µM
14,CN1CCN(C(c2ccc(C(F)(F)F)cc2)c2cc(Cl)c3cccnc3c2O)CC1 (centres undefined),6.69 µM
15,CCOC(=O)C1CCCN(S(=O)(=O)c2ccc(S(=O)(=O)N(CC)CC)cc2)C1 (centres undefined),3.8 µM
16,O=C(CCC(=O)Nc1ccc(Cl)cc1Cl)N/N=C/c1ccc([N+](=O)[O-])o1,13.8 µM
17,CC1=C/C(=N\OS(=O)(=O)c2ccccc2)C(C)=CC1=O,1.52 µM
18,CC(=O)NC(c1ccc(C(C)C)cc1)c1ccc2cccnc2c1O (centres undefined),1.98 µM
19,CCOc1ccc(OCc2ccc(C(=O)NN=Cc3ccc[nH]3)cc2)cc1,0.739 µM
20,CCOC(=O)c1cccc(-[n+]2c(-c3ccccc3)cc(-c3ccccc3)cc2-c2ccccc2)c1,3.59 µM
21,CCn1c(=O)c([N+](=O)[O-])c(Cl)c2ccccc21,7.4 µM
22,CCCCCCc1ccc(N2C[C@H](Cc3ccccc3)[C@@H](CC(=O)NCc3ccc(OC)cc3)C2=O)cc1,13.6 µM
23,Cc1ccc2nc(-c3ccc(-c4cccc(Cl)c4)cc3)c(NCc3ccccc3)n2c1,2.48 µM
24,C/C(=N\NC(=O)c1cccc(Br)c1)c1ccccn1,1.32 µM
25,COc1ccc(-c2nn(-c3ccccc3)cc2/C=N/N2C(=O)CSC2=S)cc1,6.57 µM
26,COc1ccc(C(NC(C)=O)c2cc(Cl)c3cccnc3c2O)cc1OC (centres undefined),7.62 µM

row,Structure (SMILES),AC50
1,COc1cc([N+](=O)[O-])ccc1NC(=O)CC1SC(=Nc2ccc(F)cc2)N(CCC2=CCCCC2)C1=O (centres undefined),4.23 µM
2,Cc1ccccc1OCc1n(CC(=O)OC2CC(C)CCC2C(C)C)c2ccccc2[n+]1C (centres undefined),4.05 µM
3,Cc1cc(/C=N/n2cnnc2)c(C)n1-c1ccc(OCc2ccc(Cl)cc2)cc1,1.26 µM
4,CN(C)CCOc1ccc(-c2c(-c3ccccc3)sc3ccccc23)cc1,12.8 µM
5,COc1ccc(/C=N/Nc2cc(C)nc(-n3nc(C)cc3C)n2)cc1,16.1 µM
6,COc1cccc(/C=N/NC(=O)c2ccc(-c3ccccc3)cc2)c1O,13.1 µM
7,N/C(=N\OC(=O)c1cccc(Cn2cc(C(F)(F)F)ccc2=O)c1)c1ccc(Cl)cc1,8.25 µM
8,COc1ccc2c(c1)C(=O)[C@@H](O)[C@H](c1ccc(OC)c(Br)c1)O2,10.4 µM
9,CCCC(=O)NC(c1ccc(Cl)cc1Cl)c1ccc2cccnc2c1O (centres undefined),2.3 µM
10,NC(=S)N/N=C/c1ccccc1O,> 26 µM (inactive)
11,CCc1nc(N2CCN(C(C)=O)CC2)c2c3c(sc2n1)CC(C(C)(C)C)CC3 (centres undefined),2.79 µM
12,Nc1ccccc1C#CC(=O)c1ccccc1,11.9 µM
13,CCN1C/C(=C/c2ccc(OC)c(O)c2)C(=O)/C(=C/c2ccc(OC)c(O)c2)C1,4.92 µM
14,COc1ccc2cc1Oc1ccc(cc1)C[C@H]1c3c(cc(OC)c4c3Oc3c(ccc5c3[C@H](C2)N(C)CC5)O4)CCN1C,7.68 µM
15,O=c1c2ccccc2nc(N/N=C/c2c(O)ccc3ccccc23)n1O,3.65 µM
16,CC(=O)c1cccc(NS(=O)(=O)c2ccc(N/C=C\C(=O)c3ccc(F)cc3)cc2)c1,4.97 µM
17,OC(c1cc(-c2ccc(C(F)(F)F)cc2)nc(C(F)(F)F)c1)C1CCCCN1 (centres undefined),6.81 µM
18,Cc1ccc(-n2ncc3c2CCCC3NC(=O)c2ocnc2C)cc1C (centres undefined),6.97 µM
19,O=[N+]([O-])c1cccc(-c2cn3nc(-c4ccccc4)c(-c4ccccc4)nc3n2)c1,10 µM
20,COC(=O)c1nc(-c2ccc3c(n2)C(=O)C(N)=C(OC)C3=O)c(N)c(-c2ccc(OC)c(OC)c2O)c1C,6.46 µM
21,CC1(C)CC(N2CCN(Cc3ccccc3)CC2)=CC(=[N+]2CCCCC2)C1,2.55 µM
22,CC(C)(C)c1ccc(C(O)CCCN2CCC(C(O)(c3ccccc3)c3ccccc3)CC2)cc1 (centres undefined),8.16 µM
23,Fc1ccc(-c2cc(-c3nnc4n3CCCCC4)c3ccccc3n2)cc1,8.53 µM
24,CC(C)Cn1c(N)c(C(=O)CSc2ccc3c(c2)OCCO3)c(=O)n(C)c1=O,4.85 µM
25,FC(F)(F)c1cccc(-c2nc3nc(Cl)c(Cl)nc3[nH]2)c1,3.13 µM
26,Cc1ccc2c(c1)N(C)/C(=C/c1cccc[n+]1CCO)S2,3.18 µM

row,Structure (SMILES),AC50
1,COc1cccc(/C=N/Nc2ccc([N+](=O)[O-])cn2)c1O,7.78 µM
2,O=C(NCC(c1ccco1)N1CCCC1)c1ccc(Cl)c(S(=O)(=O)N2CCc3ccccc32)c1 (centres undefined),7.47 µM
3,COc1ccc(CNCCC(c2ccccc2)c2ccc3c(c2)OCO3)cc1 (centres undefined),15.2 µM
4,Cc1ccc(S(=O)(=O)N2CCN(c3ncnc4ccccc34)CC2)cc1,6.28 µM
5,COc1ccc([C@H]2CC(=O)C=C(c3ccnc4ccc(Cl)cc34)C2)cc1,6.01 µM
6,Cc1cc(C(=O)N/N=C/c2cc(Br)ccc2OC(=O)c2ccccc2)n[nH]1,7.44 µM
7,CCC(/C=C1\Sc2ccc(OC)cc2N1CC)=C\c1sc2ccc(OC)cc2[n+]1CCCS(=O)(=O)[O-],5.74 µM
8,C=CCn1c(SCC(=O)c2[nH]c(C)c(C(=O)OCC)c2C)nc2scc(-c3ccc(OC)c(OC)c3)c2c1=O,3.53 µM
9,Cc1ccc(C(C)C)c(OCc2nn(CC(=O)c3ccc(Cl)cc3)c3[n+]2CCCCC3)c1,4.55 µM
10,CCCCNc1c(-c2ccc(-c3cccc(Cl)c3)cc2)nc2ccccn12,5.83 µM
11,Brc1ccc(-[n+]2c(-c3ccccc3)cc(-c3ccccc3)cc2-c2ccccc2)cc1,2.4 µM
12,O=C(N/N=C/c1ccccc1)c1c(O)c2ccccc2[nH]c1=O,6.58 µM
13,COc1ccccc1CNCC(O)Cn1c2ccccc2c2ccccc21 (centres undefined),12.9 µM
14,CCn1c(=NC(=O)c2ccc(S(=O)(=O)N3CCOCC3)cc2)sc2cccc(OC)c21,8.4 µM
15,O=C(N/N=C/c1cc(Br)cc(Br)c1O)c1ccncc1,7.34 µM
16,O=C(NCCOCCOCCNC(=O)c1cccnc1)c1cccnc1,3.83 µM
17,CCC(=O)N1c2ccc(S(=O)(=O)N3CCN(c4ccc([N+](=O)[O-])cc4)CC3)cc2CC1C (centres undefined),6.37 µM
18,CC(C)CCCCCCNC(=S)Nc1ccc(S(=O)(=O)N2CCOCC2)cc1,12.6 µM
19,Cc1ccc(C(C)C)c(OCc2ccc(C(=O)N/N=C/c3cccc(O)c3O)cc2)c1,7.27 µM
20,COc1ccc(C2/C=C\CN(C(=O)Nc3ccc(C(F)(F)F)cc3)CC(=O)N2Cc2ccc(F)cc2)cc1 (centres undefined),7.66 µM
21,COc1ccc(CCNc2c(C)c(C)nc3ncnn23)cc1,3.68 µM
22,COc1ccc(S(=O)(=O)Nc2ccc3oc(C)c(C(C)=O)c3c2)cc1,12.3 µM
23,CC(=O)Nc1ccc(S(=O)(=O)Nc2ccc(N3CCCCC3)cc2)cc1,4.33 µM
24,CC(=O)c1c(C)oc2c1C(=O)c1ccccc1C2=O,14.4 µM
25,Cc1ccc(NC(=O)c2ccccc2NS(=O)(=O)c2ccc(Cl)s2)cc1,5.78 µM
26,CCN(CC)S(=O)(=O)c1cccc(NC(=O)CNc2cccc(S(=O)(=O)N3CCCC3)c2)c1,6.2 µM
